In US11284623B2 (priority 2012, dated 2022):
Read-outs that look alike come from different tables or passages of the source.

How the values were obtained:
Assay type in all cases: in vivo
Fusarium graminearum [1] = conditions: 5 g ai per 100 kg seeds; corn, mesocotyl
Fusarium graminearum [2] = conditions: 5 g ai per 100 kg seeds; corn, lower roots; % of untreated control (Abbot)
[3] = system: Rhizoctonia solani (AG 2); assay: Use example FG-8: root mass affected by R. solani, pot trials, seed treatment; conditions: 10 g ai per 100 kg seeds; corn infected with R. solani
Description: (§1) Triticonazole was applied as commercial seed treatment formulation PREMIS 25 FS (25 g/L a.i., BASF SE, Ludwigshafen, Germany). Pyraclostrobin was applied as commercial seed treatment formulation STAMINA (200 g/L a.i., BASF SE, Ludwigshafen, Germany).
In 4 pot tests in the greenhouse in Limburgerhof, Bacillus subtilis MBI600, as SC formulation of spores with CFU of about 4×10^11 per ml, was tested in the crops corn and rape seed against different pathogens (Fusarium, Rhizoctonia, Scleroftinia) as solo product and in combination with triticonazole or pyraclostrobin. The application of the different products was done as seed treatment and the seeds were treated in the BASF Seed Solutions Technology Center (SSTC) Limburgerhof using a batch lab treater. […]
(§2) The expected efficacies of active compound combinations were determined using Colby's formula (Colby, S. R. “Calculating synergistic and antagonistic responses of herbicide combinations”, Weeds 15, pp. 20-22, 1967) and compared with the observed efficacies. […]
For the assessment, the roots were washed out to evaluate the disease symptoms on the roots. […] In corn in addition the disease symptoms on the first leaf were evaluated according to a 2 class evaluation. The figures from the class evaluation were converted into efficacies in % of the untreated control and the efficacy (E) was calculated as follows using Abbot's formula.

[4] = system: Rhizoctonia solani (AG 2); assay: Use example FG-8: efficacy against R. solani on roots, pot trials, seed treatment; conditions: 10 g ai per 100 kg seeds
Description: as §1
(§3) In 4 pot tests in the greenhouse in Limburgerhof, Bacillus subtilis MBI600, as SC formulation of spores with CFU of about 4×10^11 per ml, was tested in the crops corn and rape seed against different pathogens (Fusarium, Rhizoctonia, Scleroftinia) as solo product and in combination with triticonazole or pyraclostrobin. […]
(§4) The efficacy (E) was calculated using the Abbot's formula: E=(1−α/β)·100 • α corresponds to the fungicidal infection of the treated plants in % and • β corresponds to the fungicidal infection of the untreated (control) plants in %
as §2
(§5) For the assessment, the roots were washed out to evaluate the disease symptoms on the roots. […] In corn in addition the disease symptoms on the first leaf were evaluated according to a 2 class evaluation. […]

[5] = system: Rhizoctonia solani (AG 2); assay: Use example FG-8: efficacy against R. solani assessed on first leaf, pot trials, seed treatment; conditions: 10 g ai per 100 kg seeds, corn
Description: as §1, §3, §4, §2, §5

Row | Compound | Observed efficacy (Fusarium graminearum [1]) | Observed efficacy (Fusarium graminearum [2]) | Root mass in % of uninfected control [3] | Observed efficacy (%) [4] | Observed efficacy (%) [5]
1 | CC1(C)CCC(=Cc2ccc(Cl)cc2)C1(O)Cn1cncn1 (centres unmarked) [Triticonazole] | 60% | 39.8% | – | – | –
2 | COC(=O)N(OC)c1ccccc1COc1ccn(-c2ccc(Cl)cc2)n1 [Pyraclostrobin] | – | – | 23.3% | 28.7% | 1.9%
